This passage reports fragment found, cleaved bond and IC50 results from article PMC6066219 (PLoS ONE, 2018).

The nature of series [1]: freshly prepared human serum. The note with it: 37°C, up to 4 h.
Series [2] relates to peptidase (protease type 1 from bovine pancreas, Sigma Aldrich). In words: PBS with 10 mU of peptidase. The note with it: 37°C, up to 120 min.
In series [3] the test system is peptidase (protease type 1 from bovine pancreas). The experiment in a line: radiolabelling solution neutralized, diluted with PBS, 10 mU of peptidase. The settings on record: 37°C, up to 120 min.
Series [4] in a line: liver homogenate of injected mice. The settings on record: BALB/c mice, up to 5 min post injection.
The subject of series [5] is peptidase (protease type 1 from bovine pancreas). In words: iron chelated trimeric peptides dissolved in PBS, 1 mU of peptidase added. The settings on record: 37°C, up to 2 h.
For series [6] the test system is unchanged. The experiment in a line: PBS with 1 mU of peptidase. The settings on record: 37°C, up to 2 h.
Series [7] has the same test system. The experiment in a line: trimeric peptides labelled with non-radioactive gallium, neutralized, 1 mU of peptidase. The settings on record: 37°C.
For series [8] the test system is unchanged. The experiment in a line: neutralized Ga-labelling solution with 1 mU of peptidase. The note with it: 37°C.
The target of series [9] is T1, CCK2 receptor (Homo sapiens, UniProt P32239).
T1 construct: expressed in transfected cells; host or cells: A431 human epidermoid carcinoma cells (A431-CCK2R), gift from Dr. L. Aloj
T1 sequence (P32239 1-447): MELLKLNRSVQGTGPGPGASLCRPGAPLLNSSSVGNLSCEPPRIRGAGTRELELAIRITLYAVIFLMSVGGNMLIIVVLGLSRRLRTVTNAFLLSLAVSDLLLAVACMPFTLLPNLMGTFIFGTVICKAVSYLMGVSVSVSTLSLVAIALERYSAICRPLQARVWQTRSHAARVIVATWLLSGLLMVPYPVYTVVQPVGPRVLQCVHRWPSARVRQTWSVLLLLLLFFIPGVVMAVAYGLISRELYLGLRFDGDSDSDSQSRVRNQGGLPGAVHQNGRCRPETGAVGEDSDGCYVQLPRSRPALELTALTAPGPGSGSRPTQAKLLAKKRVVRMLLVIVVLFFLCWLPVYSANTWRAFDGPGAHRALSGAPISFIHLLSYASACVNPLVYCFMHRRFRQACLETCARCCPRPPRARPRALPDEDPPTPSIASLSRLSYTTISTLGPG
Also on record: method as in PMID 29849512. The settings on record: natGa-labelled competitor; 125I-[Leu15]-Gastrin radioligand; whole A431-CCK2R cells; cited from earlier work.

“Also recorded” adds a separate entry of the source.

Turning to “3-MP^0-[D-Glu^1,desGlu^2-6]-Ala-Tyr-Gly-Trp-Nle-Asp-Phe-NH2 [68Ga-Trimer-Nle]”, the fragment found result in [1] is reported as “^68Ga-Trimer-Nle-M1 (tR = 10.90 min), major; also recorded: ^68Ga-Trimer-Nle-M2 (tR = 8.59 min), major”; in series [2] it was “^68Ga-Trimer-Nle-M1 (tR = 10.93 min), major; also recorded: ^68Ga-Trimer-Nle-M2 (tR = 8.60 min), major”.
For “3-MP^0-[D-Glu^1,desGlu^2-6]-Ala-Tyr-Gly-Trp-Nle-Asp-Phe-NH2 [^68Ga-Trimer-Nle]”, the fragment found entry in [3] is “^68Ga-Trimer-Nle-M1, major, 5 min; also recorded: ^68Ga-Trimer-Nle-M2, major”; in series [4] it was “^68Ga-Trimer-Nle-M1, major, 5 min post injection; also recorded: ^68Ga-Trimer-Nle-M2, major, 5 min post injection”.
Take “3-MP^0-[D-Glu^1,desGlu^2-6]-Ala-Tyr-Gly-Trp-Nle-Asp-Phe-NH2”: the cleaved bond result in [5] is listed as “Tyr-Gly, major”; in series [6], “Tyr-Gly, major”. The fragment found result in series [7] is reported as “Ga-Trimer-Nle-M1; also recorded: Ga-Trimer-Nle-M2; also recorded: Ga-Trimer-Nle-M3”; in series [8], “Ga-Trimer-Nle-M1 (tR = 10.86 min); also recorded: Ga-Trimer-Nle-M2 (tR = 8.52 min)”.
For the substance “3-MP^0-[D-Glu^1,desGlu^2-6]-Ala-Tyr-Gly-Trp-Met-Asp-Phe-NH2 [^68Ga-Trimer-Met]”, the fragment found result in [3] is “^68Ga-Trimer-Met-M1, major, 5 min; also recorded: ^68Ga-Trimer-Met-M2, major; also recorded: ^68Ga-Trimer-Met-M3”; in series [4], “^68Ga-Trimer-Met-M1, major, 5 min post injection; also recorded: ^68Ga-Trimer-Met-M2, major, 5 min post injection”.
Regarding “3-MP^0-[D-Glu^1,desGlu^2-6]-Ala-Tyr-Gly-Trp-Met-Asp-Phe-NH2 [68Ga-Trimer-Met]”, the fragment found result in series [1] was “^68Ga-Trimer-Met-M1 (tR = 10.14 min), major; also recorded: ^68Ga-Trimer-Met-M2 (tR = 8.09 min), major”; in [2], “^68Ga-Trimer-Met-M1 (tR = 10.14 min), major; also recorded: ^68Ga-Trimer-Met-M2 (tR = 8.09 min), major; also recorded: ^68Ga-Trimer-Met-M3 (tR = 5.68 min)”.
Turning to “3-MP^0-[D-Glu^1,desGlu^2-6]-Ala-Tyr-Gly-Trp-Met-Asp-Phe-NH2”, the cleaved bond result is given as “Tyr-Gly, major” in series [5] and “Tyr-Gly, major” in series [6]. Besides, the results for the fragment found result in series [7] and in [8] were “Ga-Trimer-Met-M1; also recorded: Ga-Trimer-Met-M2; also recorded: Ga-Trimer-Met-M3” and “Ga-Trimer-Met-M1 (tR = 10.08 min); also recorded: Ga-Trimer-Met-M2 (tR = 8.02 min)”, respectively.
As usually defined, the IC50 is the concentration that gives 50% inhibition. For “Monomer-Met: monovalent FSC-based minigastrin conjugate: dAcFSC-mal coupled to one MG-Met-SH peptide (EAYGWMDF; D-Glu at position 1 (printed D-Glu1, desGlu2-6); N-terminal 3-mercaptopropanoyl (3-MP0) whose thiol is coupled to the maleimide of diacetyl-fusarinine C (dAcFSC-mal); C-terminal Phe amide; FSC chelate)”, the IC50 in series [9] is 9.71 ± 3.55 nM.
